Data: patent US11000512B2, “Use of DDX3 inhibitors as antiproliferative agents” (AZIENDA OSPEDALIERA UNIVERSITARIA SENESE, priority 2016, dated 2021)

Legend:
[1] = system: Human head and neck squamous carcinoma cell line (HN6); experiment: Cytotoxicity test / growth inhibition, HN6; assay type: cell-based; settings: HN6, 48 hours, cell counting
Experimental: (§1) Cells were purchased from American Type Culture Collection (ATCC, Manassas, Va., USA). The LNCaP (ATCC® CRL-1740™), A549 (ATCC® CCL-185™), MDA-MB-231 (ATCC® CRM-HTB-26™), 22Rv1 (ATCC® CRL-2505™), HCT-116 (ATCC® CCL-247™) and PC3 (ATCC® CRL-1435™) cells were maintained in Roswell Park Memorial Institute 1640 medium (RPMI; Euroclone, ECB9006L) supplemented with 10% fetal bovine serum (Euroclone; ECS0180L), 2 mM L-glutamine, 100 units/mL penicillin and […] streptomycin at 37° C. in an atmosphere of 5% CO2/air. DU145 (ATCC® HTB-81™), and DAOY (ATCC® HTB-186™) cells were maintained in Eagle's minimal essential medium (EMEM; Euro-clone, ECM0445L) supplemented with 10% fetal bovine serum (Euroclone; ECS0180L), 2 mM L-glutamine, 100 units/ml penicillin and […] streptomycin at 37° C. in an atmosphere of 5% CO2/air. SH-SY5Y (ATCC® CRL-2266™), DBRTG (ATCC® CRL-2020™), HeLa (ATCC® CCL-2™), HN6 cells (kindly provided by Dr Silvio Gutkind, UCSD Medical Center, Moores Cancer Center USA, Chen J. J et al, Oncotarget 2013, 4, 206-217)), U2OS (ATCC® HTB-96™), RD18 cells (kindly provided by Dr P. Boccuni Memorial Sloan-Kettering Cancer Center, New York, USA Vella S. et al. Clin Epigenetics. 2015 6; 7-82), cells were maintained in Dulbecco's modified Eagle's medium (DMEM; Euroclone, ECB7501L) supplemented with 10% fetal bovine serum (Euroclone; ECS0180L), 2 mM L-glutamine, 100 units/ml penicillin and 100 mg/mL streptomycin at 37° C. in an atmosphere of 5% CO2/air.
(§2) Cell lines were seeded at appropriate densities in 2 mL growth medium in 6-wells culture plates 24 hours before the treatment with the inhibitor compounds. After 24 h the culture medium was removed and fresh medium containing increasing concentrations of chemical compounds was added to cells. The fixed final concentrations were: 0.1 μM, 1 μM, 10 μM, 100 μM. DMSO was the vehicle used for dilution of the compounds and its final concentration on cells was less than 0.2%. Medium-only containing wells were included as controls. Cells were incubated 48 hours with drugs and, then, cell viability was evaluated.
(§3) Cells were detached from each well of the 6-wells plates with 300 μL of Trypsin and suspended in culture medium to a final volume of 1 mL. Cell viability was then assessed through cell counting. Cells were diluted in 1:50 ratio of an isotonic buffered diluent, Isoton (Backman Coulter), following the manufacturer's instructions, and counted using an automated cell counter (Z2 series Coulter Counter, Beckman Coulter). Each cell count was performed in three replicates. The values corresponding to the relative survival of cells in presence of each chemical compound at single concentrations were normalized to the untreated controls. Then, the half maximal inhibitory concentration (IC50) value, which represent the drug concentration that is required to induce a 50% growth inhibition in vitro, was calculated with GraphPad Prism 6.0 software using the best fitting sigmoid curve.

[2] = system: Human Prostate cell line derived from brain metastasis (DU-145); experiment: Cytotoxicity test / growth inhibition, DU-145; assay type: cell-based; settings: DU-145, 48 hours, cell counting
Experimental: as §1, §2
as §3, with “Then, the half maximal inhibitory concentration (IC50) value, which represent the drug concentration that is required to induce a 50% growth inhibition in vitro, was calculated with GraphPad Prism 6.0 software using the best fitting sigmoid curve.” left out

[3] = system: Human Prostate cancer cell line (PC3); experiment: Cytotoxicity test / growth inhibition, PC3; assay type: cell-based; settings: PC3, 48 hours, cell counting
Experimental: as §1, with “2015 6; 7-82), cells were maintained in Dulbecco's modified Eagle's medium (DMEM; Euroclone, ECB7501L) supplemented with 10% fetal bovine serum (Euroclone; ECS0180L), 2 mM L-glutamine, 100 units/ml penicillin and 100 mg/mL streptomycin at 37° C. in an atmosphere of 5% CO2/air.” left out
Cell lines were seeded at appropriate densities in 2 mL growth medium in 6-wells culture plates 24 hours before the treatment with the inhibitor compounds. […] Cells were incubated 48 hours with drugs and, then, cell viability was evaluated.
Cells were detached from each well of the 6-wells plates with 300 μL of Trypsin and suspended in culture medium to a final volume of 1 mL. Cell viability was then assessed through cell counting. Cells were diluted in 1:50 ratio of an isotonic buffered diluent, Isoton (Backman Coulter), following the manufacturer's instructions, and counted using an automated cell counter (Z2 series Coulter Counter, Beckman Coulter). […]

[4] = system: Human adenocarcinomic alveolar basal epithelial cell line (A549); experiment: Cytotoxicity test / growth inhibition, A549; assay type: cell-based; settings: A549, 48 hours, cell counting
Experimental: as §1, §2, §3

[5] = target: T1, Human recombinant DDX3 (DDX3 wt helicase) (Homo sapiens, UniProt O00571); experiment: Helicase assay (anti-enzymatic activity against the DDX3 helicase); assay type: biochemical; settings: DDX3 helicase activity, dsRNA unwinding; n.a = Compound not active; read-out: ID50 (the source's name)
T1 construct: made in house
Experimental: The helicase activity of DDX3 wt was monitored by measuring the conversion of a double stranded (ds) RNA (labelled at the 5′-end of one strand with a 6-FAM fluorescent) into single stranded (ss) nucleic acid. A final concentration of 25 nM RNA substrate was used in the experiments, unless otherwise stated. Reactions were performed in 50 mM TrisHCl pH 7.5, 1 mM DTT, 0.2 mg/ml BSA, 5% glycerol and 100 μM ATP, 10 mM MgCl2 at 37° C. degrees for 10′ and stopped by adding EDTA 50 mM pH 8. Products were separated through non-denaturating 8% PAGE at 5 W for 4 hours in TBE buffer at 4° C. Substrates and products were quantified by laser scanning densitometry (Thyphoon-TRIO, GE Healthcare).
Human recombinant DDX3 was cloned, expressed and purified as described (Franca et al. Proteins 2007, 67, 1128-37).

T1 sequence (O00571 whole entry): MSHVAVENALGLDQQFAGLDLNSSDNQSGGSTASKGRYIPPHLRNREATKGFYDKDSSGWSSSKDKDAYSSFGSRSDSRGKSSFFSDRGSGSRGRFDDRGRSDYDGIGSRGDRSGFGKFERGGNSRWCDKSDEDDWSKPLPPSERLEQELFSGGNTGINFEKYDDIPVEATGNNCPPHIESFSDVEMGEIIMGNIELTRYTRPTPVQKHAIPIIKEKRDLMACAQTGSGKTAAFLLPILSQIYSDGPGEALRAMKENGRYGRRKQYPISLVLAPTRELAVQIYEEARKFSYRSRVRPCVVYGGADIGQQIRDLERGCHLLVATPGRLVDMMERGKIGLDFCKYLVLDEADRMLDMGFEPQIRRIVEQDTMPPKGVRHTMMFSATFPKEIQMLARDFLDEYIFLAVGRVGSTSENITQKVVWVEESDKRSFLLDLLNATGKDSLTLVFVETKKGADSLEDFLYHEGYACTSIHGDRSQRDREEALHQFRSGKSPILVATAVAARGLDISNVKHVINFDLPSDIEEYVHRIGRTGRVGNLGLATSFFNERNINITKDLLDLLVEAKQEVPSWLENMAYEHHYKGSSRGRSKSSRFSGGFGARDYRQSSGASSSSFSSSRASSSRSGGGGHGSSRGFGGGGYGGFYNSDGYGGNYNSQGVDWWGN

| SMILES | IC50 [1] [µM] | IC50 [2] [µM] | IC50 [3] [µM] | IC50 [4] [µM] | IC50 [5] [µM] |
| --- | --- | --- | --- | --- | --- |
| CC(C)CCc1cn(-c2ccc(NC(=O)Nc3cccc4cnccc34)cc2)nn1 [Compound 55f, 1-(4-(4-isopentyl-1H-1,2,3-triazol-1-yl)phenyl)-3-(isoquinolin-5-yl)urea] | 6.1 | 0.6 | 32.4 | – | – |
| CCCCc1nnc(-c2ccc(NC(=O)Nc3ccccc3C(F)(F)F)cc2)[nH]1 [Compound 119, 1-(4-(5-butyl-4H-1,2,4-triazol-3-yl)phenyl)-3-(2-(trifluoromethyl)phenyl)urea] | – | 12.9 | 46.3 | 14 | 1 |
